From PubChem BioAssay (NCI)
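Briefly, cells in 96-well plates were exposed to five compound concentrations for 48 h, and endpoints were estimated by linear interpolation. Definition used: TGI = concentration required for complete inhibition of growth.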

Experiments:
Assay in all cases: DTP human tumour cell line panel, 48 h
[1] = system: IGROV1 ovarian
[2] = system: PC-3 prostate
[3] = system: SK-MEL-2 melanoma
[4] = system: NCI-H460 lung
[5] = system: LOX IMVI melanoma
[6] = system: SF-295 CNS
[7] = system: HS 578T breast
[8] = system: U251 CNS
[9] = system: OVCAR-3 ovarian
[10] = system: MDA-N
[11] = system: NCI-H23 lung
[12] = system: HT29 colon
[13] = system: NCI-H522 lung
[14] = system: M14 melanoma
[15] = system: EKVX NSCLC
[16] = system: SW-620 colon
[17] = system: SF-539 CNS
[18] = system: UACC-62 melanoma
[19] = system: NCI/ADR-RES ovarian
[20] = system: OVCAR-4 ovarian
[21] = system: HOP-62 NSCLC
[22] = system: ACHN renal
[23] = system: UACC-257 melanoma
[24] = system: SN12C renal
[25] = system: MDA-MB-435
[26] = system: SNB-19 CNS
[27] = system: 786-0 renal
[28] = system: MOLT-4 leukemia
[29] = system: UO-31 renal
[30] = system: CAKI-1 renal
[31] = system: HOP-92 NSCLC
[32] = system: MCF7 breast
[33] = system: NCI-H226 lung
[34] = system: HCT-116 colon
[35] = system: COLO 205 colon
[36] = system: SK-OV-3 ovarian
[37] = system: HCC-2998 colon
[38] = system: SNB-75 CNS
[39] = system: SF-268 CNS
[40] = system: KM12 colon
[41] = system: RXF 393 renal
[42] = system: MDA-MB-231 breast
[43] = system: MALME-3M melanoma
[44] = system: RPMI-8226 leukemia
[45] = system: SR leukemia
[46] = system: A549 NSCLC
[47] = system: HCT-15 colon
[48] = system: BT-549 breast
[49] = system: CCRF-CEM leukemia
[50] = system: TK-10 renal
[51] = system: SK-MEL-5 melanoma
[52] = system: T-47D breast
[53] = system: A498 renal
[54] = system: SK-MEL-28 melanoma
[55] = system: DU-145 prostate
[56] = system: OVCAR-8 ovarian
[57] = system: OVCAR-5 ovarian
[58] = system: K-562 leukemia
[59] = system: HL-60(TB) leukemia

O=C(O)CSc1ccc(N=C=S)cc1
TGI [1]: > 100 µM | TGI [2]: > 100 µM | TGI [3]: > 100 µM | TGI [4]: > 100 µM | TGI [5]: > 100 µM | TGI [6]: > 100 µM | TGI [7]: > 100 µM | TGI [8]: > 100 µM | TGI [9]: > 100 µM | TGI [10]: > 100 µM | TGI [11]: > 100 µM | TGI [12]: > 100 µM | TGI [13]: > 100 µM | TGI [14]: > 100 µM | TGI [15]: > 100 µM | TGI [16]: > 100 µM | TGI [17]: 77.1 µM | TGI [18]: > 100 µM | TGI [19]: > 100 µM | TGI [20]: > 100 µM | TGI [21]: > 100 µM | TGI [22]: > 100 µM | TGI [23]: > 100 µM | TGI [24]: > 100 µM | TGI [25]: > 100 µM | TGI [26]: > 100 µM | TGI [27]: > 100 µM | TGI [28]: > 100 µM | TGI [29]: > 100 µM | TGI [30]: > 100 µM | TGI [31]: > 100 µM | TGI [32]: > 100 µM | TGI [33]: > 100 µM | TGI [34]: > 100 µM | TGI [35]: > 100 µM | TGI [36]: > 100 µM | TGI [37]: > 100 µM | TGI [38]: > 100 µM | TGI [39]: > 100 µM | TGI [40]: > 100 µM | TGI [41]: > 100 µM | TGI [42]: > 100 µM | TGI [43]: 84 µM | TGI [44]: 57.1 µM | TGI [45]: 47.5 µM | TGI [46]: > 100 µM | TGI [47]: > 100 µM | TGI [48]: > 100 µM | TGI [49]: 51.5 µM | TGI [50]: > 100 µM | TGI [51]: > 100 µM | TGI [52]: > 100 µM | TGI [53]: > 100 µM | TGI [54]: > 100 µM | TGI [55]: > 100 µM | TGI [56]: > 100 µM | TGI [57]: > 100 µM

CN(C(=O)CCC(=O)O)c1ccccc1C(=O)O
TGI [1]: > 100 µM | TGI [2]: > 100 µM | TGI [3]: > 100 µM | TGI [4]: > 100 µM | TGI [5]: > 100 µM | TGI [6]: > 100 µM | TGI [7]: > 100 µM | TGI [8]: > 100 µM | TGI [9]: > 100 µM | TGI [58]: > 100 µM | TGI [10]: > 100 µM | TGI [59]: > 100 µM | TGI [11]: > 100 µM | TGI [12]: > 100 µM | TGI [14]: > 100 µM | TGI [15]: > 100 µM | TGI [16]: > 100 µM | TGI [17]: > 100 µM | TGI [18]: > 100 µM | TGI [19]: > 100 µM | TGI [20]: > 100 µM | TGI [22]: > 100 µM | TGI [23]: > 100 µM | TGI [25]: > 100 µM | TGI [26]: > 100 µM | TGI [27]: > 100 µM | TGI [28]: > 100 µM | TGI [29]: > 100 µM | TGI [30]: > 100 µM | TGI [31]: > 100 µM | TGI [32]: > 100 µM | TGI [33]: > 100 µM | TGI [34]: > 100 µM | TGI [35]: > 100 µM | TGI [36]: > 100 µM | TGI [37]: > 100 µM | TGI [38]: > 100 µM | TGI [39]: > 100 µM | TGI [40]: > 100 µM | TGI [41]: > 100 µM | TGI [42]: > 100 µM | TGI [43]: > 100 µM | TGI [44]: > 100 µM | TGI [45]: > 100 µM | TGI [46]: > 100 µM | TGI [47]: > 100 µM | TGI [48]: > 100 µM | TGI [49]: > 100 µM | TGI [50]: > 100 µM | TGI [51]: > 100 µM | TGI [52]: > 100 µM | TGI [53]: > 100 µM | TGI [54]: > 100 µM | TGI [55]: > 100 µM | TGI [56]: > 100 µM | TGI [57]: > 100 µM

CCOC(=O)c1cn2c(n1)sc1cc(C)c(C)cc12
TGI [1]: 56.5 µM | TGI [2]: 45.7 µM | TGI [3]: > 100 µM | TGI [4]: > 100 µM | TGI [5]: > 100 µM | TGI [6]: > 100 µM | TGI [7]: 79.3 µM | TGI [8]: 41.2 µM | TGI [9]: 32.5 µM | TGI [58]: > 100 µM | TGI [10]: 22 µM | TGI [11]: > 100 µM | TGI [12]: 33.8 µM | TGI [13]: 94.4 µM | TGI [14]: 85.2 µM | TGI [15]: 61.7 µM | TGI [16]: 65.1 µM | TGI [17]: 29.6 µM | TGI [18]: > 100 µM | TGI [19]: 67.5 µM | TGI [20]: > 100 µM | TGI [21]: 34.3 µM | TGI [22]: 35.3 µM | TGI [23]: > 100 µM | TGI [24]: 36.8 µM | TGI [25]: > 100 µM | TGI [26]: 42.9 µM | TGI [27]: 34.9 µM | TGI [28]: 91.1 µM | TGI [29]: 35.4 µM | TGI [30]: 39.4 µM | TGI [31]: 65.4 µM | TGI [32]: > 100 µM | TGI [33]: 44.9 µM | TGI [34]: 33.7 µM | TGI [35]: 55 µM | TGI [36]: 69.2 µM | TGI [37]: > 100 µM | TGI [38]: 44.8 µM | TGI [39]: 52.7 µM | TGI [40]: > 100 µM | TGI [41]: 51.2 µM | TGI [42]: 58.4 µM | TGI [43]: 35.1 µM | TGI [44]: 82.7 µM | TGI [45]: > 100 µM | TGI [46]: 38.2 µM | TGI [47]: > 100 µM | TGI [48]: 72.4 µM | TGI [49]: > 100 µM | TGI [50]: 57.1 µM | TGI [51]: 32.1 µM | TGI [52]: 62.1 µM | TGI [53]: 32.6 µM | TGI [54]: 48.4 µM | TGI [55]: 48.8 µM | TGI [56]: 52.3 µM | TGI [57]: 36.4 µM
